Legend:
[1] = Maximum tolerated dose (MTD) study; assay type: in vivo; settings: dose-escalation MTD study, IV, CD-1 nude mice
Experimental: To determine if the in vitro activity of CM03 was paralleled in vivo, we explored the activity of CM03 in a mouse xenograft model of PDAC. We have previously reported that the maximum tolerated dosage (MTD) for intravenous (IV) administration of MM41 is 25 mg/kg.[33] CM03 was well tolerated, up to a dosage of 45–50 mg/kg, as judged by a dose-escalation MTD study. A therapeutic schedule of two CM03 intravenous (IV) doses was explored using a subcutaneous MIA PaCa-2 pancreatic tumor xenograft model derived from the human cell line used in the cell growth inhibition studies. A group size of eight CD-1 nude mice was used, and dosing was conducted at 10 and 15 mg/kg, each twice weekly, over a period of 4 weeks (28 days: 8 doses). Two further groups were given either MM41 or gemcitabine at 15 mg/kg and received the same dose regimen. […] IVIS imaging of treated mice was performed by taking account of the intrinsic fluorescence of CM03. […] Thus, in contrast to MM41 and gemcitabine, the higher-dose CM03 treatment results in a statistically significant (p < 0.001) antitumor effect, which persisted long after dosing had ceased, up to the termination of the xenograft experiment (62 days).
The maximum tolerated dose (MTD) studies of MM41 and CM03 were performed in CD-1 nude mice. […] Mice were monitored visually for signs of adverse effects over periods of up to 72 h. […]

PANC-1 cells = test: BG4 and 53BP1 immunofluorescence microscopy; assay type: cell-based, human
Source text: Because many established G4-stabilizing ligands induce transcription and replication-coupled DNA damage in the vicinity of G4-forming sequences,[44] we investigated whether CM03 treatment affects cellular G4 occurrence and/or induces a DNA damage response. To do this, we treated asynchronous PANC-1 cells with CM03 and performed immunofluorescence staining using the G4-specific antibody BG4[18] and an antibody against the DNA damage and double-strand break (DSB) marker 53BP1[45] followed by 3D image construction and analysis. […] This further confirms that CM03 has a direct action at G4 sites to increase G4 stabilization. Consistent with the capability of unresolved endogenous genomic G4 sites[46] and small molecule-stabilized G4s to obstruct DNA replication,[44] a 2-fold increase in the number of 53BP1 foci was only apparent after 24 h treatment with CM03 (11 ± 2 compared to 21 ± 3 53BP1 foci) (Figure 4a,c). To determine if CM03 induced DNA damage directly at G4 sites, we calculated the extent of co-localization between BG4 and 53BP1 foci using object-based image co-localization analysis.
BG4 and 53BP1 immunofluorescence experiments were performed essentially as described,[16],[18] with slight modifications. In brief, 8 × 10^4 PANC-1 cells were seeded overnight on circular no. 1.5 coverslips per well in 12-well plates. Next day, cells were incubated with 400 nM CM03 (or left untreated) in 1 mL of media at 37 °C for 6 and 24 h and then fixed with 4 (v/v) % freshly prepared paraformaldehyde in 1× PBS for 10 min at RT. Coverslips were washed 1× PBS, permeabilized with 0.1% (v/v) Triton-X100 in PBS for 10 min, washed with 1× PBS, and blocked with 2% (w/v) Marvel milk (Premier Foods plc) in PBS for 1 h at 37 °C. After blocking, coverslips were incubated with BG4 (20 nM) at 37 °C for 1 h, washed three times for 5 min with PBST (0.1% (v/v) Tween 20), and then incubated with 37 °C for 1 h with rabbit α-FLAG 1:800 (CST, catalogue no. 2368) and mouse α-53BP1 1:500 (Millipore, catalogue no. MAB2803). […] Fluorescence illumination was with a xenon source and FITC, Cy5, and DAPI fluorescent filter cubes used to image BG4, 53BP1, and the nuclei, respectively. […] See extended methods, immunofluorescence, for the custom protocol designed for the BG4-53BP1 foci quantification and co-localization method. […]
For the putative G4 sequences (PQs) analysis, the occurrence of the canonical G4 motif (G≥3N1-7G≥3+N1-7G3≥N1-7G≥3), as previously defined 2,3, was calculated both in gene promoters (defined as 2 kilobases upstream of the transcription start site (TSS) and 100 bases downstream ) and gene bodies (exons and introns). […]

## O=C1c2ccc3c4c(c(NCCN5CCCC5)cc(c24)C(=O)N1CCCN1CCOCC1)C(=O)N(CCCN1CCOCC1)C3=O [CM03, 2,7-bis(3-morpholinopropyl)-4-((2-(pyrrolidin-1-yl)ethyl)amino)benzo[lmn][3,8]phenanthroline-1,3,6,8(2H,7H)-tetraone]
[1]
  well tolerated, up to a dosage of: 45 to 50 mg/kg
PANC-1 cells; 400 nM CM03, 6 h
  number of nuclear BG4 foci: 393 ± 13
PANC-1 cells; 400 nM CM03, 24 h
  number of 53BP1 foci: 21 ± 3
  number of nuclear BG4 foci: 444 ± 39
  total BG4 foci per nucleus associated with DNA damage foci: 1.4%
